Assay results published in ChEMBL document CHEMBL5465560, “Selectivity Literature for EUbOPEN Chemogenomic Library” (2024).

How the values were obtained:
[1] = target: T1, Cyclin-dependent kinase-like 5 (Homo sapiens) (UniProt O76039); test: Selectivity interaction (KinomeScan (DiscoverX)) EUB0000655a CDKL5; conditions: at 10 µM
T1 sequence (whole entry): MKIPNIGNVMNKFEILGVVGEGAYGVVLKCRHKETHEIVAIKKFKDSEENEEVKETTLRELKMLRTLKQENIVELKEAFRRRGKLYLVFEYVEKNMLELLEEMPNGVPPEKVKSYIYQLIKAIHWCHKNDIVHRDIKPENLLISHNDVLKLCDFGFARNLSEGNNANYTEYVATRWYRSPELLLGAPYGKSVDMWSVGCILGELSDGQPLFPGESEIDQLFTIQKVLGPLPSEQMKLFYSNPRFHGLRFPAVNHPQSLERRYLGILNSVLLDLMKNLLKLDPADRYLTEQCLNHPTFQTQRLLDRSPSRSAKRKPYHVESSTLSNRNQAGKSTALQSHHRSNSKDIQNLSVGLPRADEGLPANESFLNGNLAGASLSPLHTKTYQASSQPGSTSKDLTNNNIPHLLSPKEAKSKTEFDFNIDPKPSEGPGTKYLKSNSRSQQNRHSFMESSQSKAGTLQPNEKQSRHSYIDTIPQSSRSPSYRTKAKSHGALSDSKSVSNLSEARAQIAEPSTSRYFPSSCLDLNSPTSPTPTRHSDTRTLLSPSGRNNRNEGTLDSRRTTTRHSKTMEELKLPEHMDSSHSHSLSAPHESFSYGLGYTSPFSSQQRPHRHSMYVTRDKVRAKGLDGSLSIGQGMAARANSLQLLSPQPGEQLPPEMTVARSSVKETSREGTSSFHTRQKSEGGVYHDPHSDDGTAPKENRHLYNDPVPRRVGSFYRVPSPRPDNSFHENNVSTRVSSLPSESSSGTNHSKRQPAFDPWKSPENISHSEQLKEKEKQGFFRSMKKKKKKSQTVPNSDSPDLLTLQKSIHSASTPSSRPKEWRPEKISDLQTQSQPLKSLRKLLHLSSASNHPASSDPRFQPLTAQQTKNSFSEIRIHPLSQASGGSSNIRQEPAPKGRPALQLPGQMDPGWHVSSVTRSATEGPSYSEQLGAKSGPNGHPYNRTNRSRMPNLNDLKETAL

[2] = target: T2, Mitogen-activated protein kinase kinase kinase 6 (Homo sapiens) (UniProt O95382); conditions: at 10 µM
T2 sequence (whole entry): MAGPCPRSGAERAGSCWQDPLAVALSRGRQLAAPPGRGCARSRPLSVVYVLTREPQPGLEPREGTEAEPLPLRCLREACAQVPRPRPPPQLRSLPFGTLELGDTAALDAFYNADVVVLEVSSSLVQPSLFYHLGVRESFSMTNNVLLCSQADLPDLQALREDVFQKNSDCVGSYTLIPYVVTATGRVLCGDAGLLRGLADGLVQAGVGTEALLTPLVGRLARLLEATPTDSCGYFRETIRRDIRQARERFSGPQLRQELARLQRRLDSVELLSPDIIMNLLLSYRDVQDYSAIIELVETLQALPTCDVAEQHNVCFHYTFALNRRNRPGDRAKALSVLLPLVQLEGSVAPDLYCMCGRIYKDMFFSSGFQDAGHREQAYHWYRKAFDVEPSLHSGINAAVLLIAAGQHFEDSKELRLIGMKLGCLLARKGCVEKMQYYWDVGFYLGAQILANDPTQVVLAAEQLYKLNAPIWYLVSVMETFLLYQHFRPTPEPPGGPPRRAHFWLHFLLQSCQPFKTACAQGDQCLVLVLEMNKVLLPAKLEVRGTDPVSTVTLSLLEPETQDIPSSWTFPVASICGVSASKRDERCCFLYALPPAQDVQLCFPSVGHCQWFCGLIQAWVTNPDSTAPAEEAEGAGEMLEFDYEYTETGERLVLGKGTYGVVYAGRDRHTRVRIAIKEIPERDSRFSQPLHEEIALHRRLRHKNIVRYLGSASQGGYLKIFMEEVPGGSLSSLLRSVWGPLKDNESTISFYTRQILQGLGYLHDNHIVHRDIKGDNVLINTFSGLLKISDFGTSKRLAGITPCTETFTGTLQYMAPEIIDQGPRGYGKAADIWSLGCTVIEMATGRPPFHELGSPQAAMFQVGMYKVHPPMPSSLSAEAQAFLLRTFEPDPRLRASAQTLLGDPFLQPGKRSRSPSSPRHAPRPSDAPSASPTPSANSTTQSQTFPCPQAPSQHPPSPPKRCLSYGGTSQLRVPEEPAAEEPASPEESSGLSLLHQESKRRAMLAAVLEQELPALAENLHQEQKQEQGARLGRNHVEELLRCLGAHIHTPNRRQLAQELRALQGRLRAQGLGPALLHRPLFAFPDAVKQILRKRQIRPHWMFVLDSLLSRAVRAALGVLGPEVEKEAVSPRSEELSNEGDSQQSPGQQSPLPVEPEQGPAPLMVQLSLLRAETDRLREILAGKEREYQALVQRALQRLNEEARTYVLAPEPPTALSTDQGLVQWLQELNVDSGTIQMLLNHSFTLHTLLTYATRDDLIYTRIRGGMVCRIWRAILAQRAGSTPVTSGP

[3] = target: Serine/threonine-protein kinase Nek6 (Homo sapiens) (UniProt Q9HC98); test: Selectivity interaction (KinomeScan (DiscoverX)) EUB0001049a NEK6; conditions: at 1 µM
[4] = target: Phosphatidylinositol 4,5-bisphosphate 3-kinase catalytic subunit gamma isoform (Homo sapiens) (UniProt P48736); test: Selectivity interaction (KinomeScan (DiscoverX)) EUB0000666a PIK3CG; conditions: at 10 µM
Sequence of Phosphatidylinositol 4,5-bisphosphate 3-kinase catalytic subunit gamma isoform (Homo sapiens) (P48736 whole entry, looked up, canonical isoform): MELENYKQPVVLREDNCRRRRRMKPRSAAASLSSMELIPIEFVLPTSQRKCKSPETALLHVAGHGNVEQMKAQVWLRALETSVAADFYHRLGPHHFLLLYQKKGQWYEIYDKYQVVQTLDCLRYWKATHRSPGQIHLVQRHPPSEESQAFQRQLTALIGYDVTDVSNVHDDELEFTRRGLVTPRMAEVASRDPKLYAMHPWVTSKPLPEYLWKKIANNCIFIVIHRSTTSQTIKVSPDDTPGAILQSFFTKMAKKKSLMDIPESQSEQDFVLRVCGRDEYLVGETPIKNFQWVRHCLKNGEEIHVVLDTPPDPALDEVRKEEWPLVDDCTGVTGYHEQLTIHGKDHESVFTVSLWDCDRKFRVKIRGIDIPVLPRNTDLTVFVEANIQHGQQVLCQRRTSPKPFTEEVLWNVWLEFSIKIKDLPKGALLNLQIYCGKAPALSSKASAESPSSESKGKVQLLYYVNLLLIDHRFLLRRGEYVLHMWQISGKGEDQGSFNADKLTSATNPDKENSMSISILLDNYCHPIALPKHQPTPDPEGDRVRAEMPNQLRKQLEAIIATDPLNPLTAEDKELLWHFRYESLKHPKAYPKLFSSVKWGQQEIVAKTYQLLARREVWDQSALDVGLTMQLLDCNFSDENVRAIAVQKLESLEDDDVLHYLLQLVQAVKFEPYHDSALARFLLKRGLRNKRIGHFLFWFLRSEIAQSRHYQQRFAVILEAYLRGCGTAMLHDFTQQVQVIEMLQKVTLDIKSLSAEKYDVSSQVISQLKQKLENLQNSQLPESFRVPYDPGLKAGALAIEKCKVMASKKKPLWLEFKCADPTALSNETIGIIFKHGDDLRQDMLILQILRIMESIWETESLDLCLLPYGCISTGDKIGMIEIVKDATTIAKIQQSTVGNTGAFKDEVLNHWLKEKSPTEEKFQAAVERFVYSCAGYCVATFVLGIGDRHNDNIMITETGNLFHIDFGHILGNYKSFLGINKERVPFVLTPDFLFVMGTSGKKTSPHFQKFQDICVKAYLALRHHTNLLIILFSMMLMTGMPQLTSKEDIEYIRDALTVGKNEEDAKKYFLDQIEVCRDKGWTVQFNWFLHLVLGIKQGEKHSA

Sequence of Serine/threonine-protein kinase Nek6 (Homo sapiens) (Q9HC98 whole entry, canonical isoform): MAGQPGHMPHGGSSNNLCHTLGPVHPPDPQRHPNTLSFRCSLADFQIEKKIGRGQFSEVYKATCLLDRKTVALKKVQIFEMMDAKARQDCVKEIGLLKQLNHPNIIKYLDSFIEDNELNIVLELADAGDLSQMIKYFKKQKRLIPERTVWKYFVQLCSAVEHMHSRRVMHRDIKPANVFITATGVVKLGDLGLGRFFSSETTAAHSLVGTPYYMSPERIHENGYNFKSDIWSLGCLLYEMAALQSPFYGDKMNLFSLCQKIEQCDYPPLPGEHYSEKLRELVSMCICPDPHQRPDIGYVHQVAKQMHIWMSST

CN(C)CCOc1ccc(-c2nc(-c3ccncc3)c(-c3ccc4c(c3)CC/C4=N\O)[nH]2)cc1
% of control [1]: 100%

Cc1cc([C@@H](C)Nc2ccccc2C(=O)O)c2nc(N3CCOCC3)cc(=O)n2c1 [AZD-6482]
% of control [2]: 95%

COc1cc(Nc2nc(C)cc(-c3cnn4nc(OC)ccc34)n2)cc(C(F)(F)F)c1
% of control [3]: 89%

O=C(NOC[C@H](O)CO)c1ccc(F)c(F)c1Nc1ccc(I)cc1F
% of control [4]: 88%
